In the supplement of paper PMC10307832:

What was measured:
Assay in all cases: relative viability (nuclei count vs DMSO), 5 days (fraction); higher = more cells survive
[1] = tested on: NCI-H1623
Summary of the method: (§1)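 The day after seeding in 1536-well plates, lung cancer cell lines were treated by pin tool with a single drug, or with a fixed anchor-drug dose together with five library-drug doses (not always all listed) in √10 steps. After 5 days, a combined fix-and-stain solution (final 0.05% Triton X-100, 1% formaldehyde, 1 ug/ml Hoechst) was added. Nuclei counted on 4× images gave relative viability as treated counts over vehicle counts, reported as the median of duplicate plates.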

[2] = tested on: A549
Summary of the method: as §1

[3] = tested on: NCI-H1299
Summary of the method: as §1

[4] = tested on: SK-MES-1
Summary of the method: as §1

[5] = tested on: Calu-6
Summary of the method: as §1

[6] = tested on: ChaGo-K-1
Summary of the method: as §1

[7] = tested on: IA-LM
Summary of the method: as §1

[8] = tested on: NCI-H1703
Summary of the method: as §1

[9] = tested on: NCI-H1651
Summary of the method: as §1

[10] = tested on: EBC-1
Summary of the method: as §1

[11] = tested on: NCI-H522
Summary of the method: as §1

NC(=O)Nc1cc(-c2cccc(F)c2)sc1C(=O)N[C@H]1CCCNC1 [AZD7762] + COc1cc2c(Oc3ccc(NC(=O)C4(C(=O)Nc5ccc(F)cc5)CC4)cc3F)ccnc2cc1OCCCN1CCOCC1 [Foretinib] (partner 0.25 µM) gave a relative viability ([1]; first compound 0.01 µM) of 0.874, a relative viability ([1]; first compound 0.03162 µM) of 0.821 and a relative viability ([1]; first compound 0.1 µM) of 1. It also gave a relative viability ([1]; first compound 0.3162 µM) of 0.96, a relative viability ([1]; first compound 1 µM) of 0.664 and a relative viability ([2]; first compound 0.01 µM) of 1.02. For the same compound, the relative viability ([2]; first compound 0.03162 µM) was 0.928, the relative viability ([2]; first compound 0.1 µM) was 0.942 and the relative viability ([2]; first compound 0.3162 µM) was 0.837. For the same compound, the relative viability ([2]; first compound 1 µM) was 0.259, the relative viability ([3]; first compound 0.01 µM) was 1.09 and the relative viability ([3]; first compound 0.03162 µM) was 1.15. It also gave a relative viability ([3]; first compound 0.1 µM) of 1.09, a relative viability ([3]; first compound 0.3162 µM) of 1.07 and a relative viability ([3]; first compound 1 µM) of 0.622. The relative viability ([4]; first compound 0.01 µM) was 0.83, the relative viability ([4]; first compound 0.03162 µM) was 0.973 and the relative viability ([4]; first compound 0.1 µM) was 1.02. It also gave a relative viability ([4]; first compound 0.3162 µM) of 0.903, a relative viability ([4]; first compound 1 µM) of 0.528 and a relative viability ([5]; first compound 0.01 µM) of 0.805. The relative viability ([5]; first compound 0.03162 µM) was 0.83, the relative viability ([5]; first compound 0.1 µM) was 0.831 and the relative viability ([5]; first compound 0.3162 µM) was 0.264. For the same compound, the relative viability ([5]; first compound 1 µM) was 0.0933, the relative viability ([6]; first compound 0.01 µM) was 0.924 and the relative viability ([6]; first compound 0.03162 µM) was 0.937. It also gave a relative viability ([6]; first compound 0.1 µM) of 1.02, a relative viability ([6]; first compound 0.3162 µM) of 0.899 and a relative viability ([6]; first compound 1 µM) of 0.976. For the same compound, the relative viability ([7]; first compound 0.01 µM) was 1.44, the relative viability ([7]; first compound 0.03162 µM) was 1.29 and the relative viability ([7]; first compound 0.1 µM) was 1.48. The relative viability ([7]; first compound 0.3162 µM) was 1.29, the relative viability ([7]; first compound 1 µM) was 0.59 and the relative viability ([8]; first compound 0.01 µM) was 0.398. The relative viability ([8]; first compound 0.03162 µM) was 0.34, the relative viability ([8]; first compound 0.1 µM) was 0.348 and the relative viability ([8]; first compound 0.3162 µM) was 0.292. It also gave a relative viability ([8]; first compound 1 µM) of 0.174, a relative viability ([9]; first compound 0.01 µM) of 0.912 and a relative viability ([9]; first compound 0.03162 µM) of 0.785. For the same compound, the relative viability ([9]; first compound 0.1 µM) was 0.693, the relative viability ([9]; first compound 0.3162 µM) was 0.573 and the relative viability ([9]; first compound 1 µM) was 0.186. The relative viability ([10]; first compound 0.01 µM) was 0.101, the relative viability ([10]; first compound 0.03162 µM) was 0.0952 and the relative viability ([10]; first compound 0.1 µM) was 0.105. The relative viability ([10]; first compound 0.3162 µM) was 0.119 and the relative viability ([10]; first compound 1 µM) was 0.116.

For C=C1C(=O)O[C@@H](CCCCCCCC)[C@@H]1C(=O)O [C-75] + N=C(N)NC(=N)NCCc1ccccc1 [Phenformin] (partner 250 µM), the relative viability ([1]; first compound 0.08 µM) was 0.613, the relative viability ([1]; first compound 0.253 µM) was 0.652 and the relative viability ([1]; first compound 0.8 µM) was 0.584. It also gave a relative viability ([1]; first compound 2.53 µM) of 0.542, a relative viability ([1]; first compound 8 µM) of 0.578 and a relative viability ([2]; first compound 0.08 µM) of 0.185. The relative viability ([2]; first compound 0.253 µM) was 0.211, the relative viability ([2]; first compound 0.8 µM) was 0.186 and the relative viability ([2]; first compound 2.53 µM) was 0.119. It also gave a relative viability ([2]; first compound 8 µM) of 0.121, a relative viability ([4]; first compound 0.08 µM) of 0.652 and a relative viability ([4]; first compound 0.253 µM) of 0.697. For the same compound, the relative viability ([4]; first compound 0.8 µM) was 0.636, the relative viability ([4]; first compound 2.53 µM) was 0.658 and the relative viability ([4]; first compound 8 µM) was 0.702. It also gave a relative viability ([6]; first compound 0.08 µM) of 0.461, a relative viability ([6]; first compound 0.253 µM) of 0.538 and a relative viability ([6]; first compound 0.8 µM) of 0.453. For the same compound, the relative viability ([6]; first compound 2.53 µM) was 0.414, the relative viability ([6]; first compound 8 µM) was 0.494 and the relative viability ([9]; first compound 0.08 µM) was 0.35. For the same compound, the relative viability ([9]; first compound 0.253 µM) was 0.315, the relative viability ([9]; first compound 0.8 µM) was 0.354 and the relative viability ([9]; first compound 2.53 µM) was 0.306. For the same compound, the relative viability ([9]; first compound 8 µM) was 0.291, the relative viability ([11]; first compound 0.08 µM) was 0.61 and the relative viability ([11]; first compound 0.253 µM) was 0.382. It also gave a relative viability ([11]; first compound 0.8 µM) of 0.614 and a relative viability ([11]; first compound 8 µM) of 0.582.

Work on Oc1nc(-c2ccc(C(F)(F)F)cc2)nc2c1CSCC2 [XAV939] + N=C(N)NC(=N)NCCc1ccccc1 [Phenformin] (partner 250 µM) yielded a relative viability ([1]; first compound 0.08 µM) of 0.578, a relative viability ([1]; first compound 0.253 µM) of 0.555 and a relative viability ([1]; first compound 0.8 µM) of 0.59. For the same compound, the relative viability ([1]; first compound 2.53 µM) was 0.591, the relative viability ([2]; first compound 0.08 µM) was 0.136 and the relative viability ([2]; first compound 0.253 µM) was 0.218. The relative viability ([2]; first compound 0.8 µM) was 0.129, the relative viability ([2]; first compound 2.53 µM) was 0.175 and the relative viability ([4]; first compound 0.08 µM) was 0.759. For the same compound, the relative viability ([4]; first compound 0.253 µM) was 0.643, the relative viability ([4]; first compound 0.8 µM) was 0.613 and the relative viability ([4]; first compound 2.53 µM) was 0.631. The relative viability ([6]; first compound 0.08 µM) was 0.51, the relative viability ([6]; first compound 0.253 µM) was 0.476 and the relative viability ([6]; first compound 0.8 µM) was 0.412. The relative viability ([6]; first compound 2.53 µM) was 0.409, the relative viability ([9]; first compound 0.08 µM) was 0.359 and the relative viability ([9]; first compound 0.253 µM) was 0.31. It also gave a relative viability ([9]; first compound 0.8 µM) of 0.353, a relative viability ([9]; first compound 2.53 µM) of 0.302 and a relative viability ([11]; first compound 0.08 µM) of 0.599. For the same compound, the relative viability ([11]; first compound 0.253 µM) was 0.707, the relative viability ([11]; first compound 0.8 µM) was 0.594 and the relative viability ([11]; first compound 2.53 µM) was 0.599.
